Laboratory results: PubChem BioAssay AID344 (DTP/NCI, 2004)
Several values for one entry are separate records, joined by “and”; a condition that tells them apart may be missing. Equal values may be shown once. Inconclusive results and toxic doses are left out.

Tested on: mice, LPC-1 plasma cell tumor ip, median survival T/C
Assay: NCI In Vivo Anticancer Drug Screen. Data for tumor model Lieberman Plasma Cell No. 1 (LPC-1) (intraperitoneal) in unknown mice
Conditions: endpoint: median survival time, higher = longer survival
Experimental: The antitumor activity of compounds was measured in mice bearing transplantable tumors. Survival or tumor size were measured and the results are expressed as the measurement made in the treated group (T) divided by the measurement made in the vehicle treated control group (C). The tumor model used in this assay is Lieberman Plasma Cell No. 1 (LPC-1) (intraperitoneal) in unknown mice

[1] = dose: 3.0 mg/kg/injection, schedule: Q01DX028 (sc), vehicle: saline
[2] = dose: 5.0 mg/kg/injection, schedule: Q01DX028 (sc), vehicle: saline
[3] = dose: 48.0 mg/kg/injection, schedule: Q01DX028 (sc), vehicle: saline

With `CCC(CCC(C)C1CCC2C3CC=C4CC(OC(=O)CCC(=O)O)CCC4(C)C3CCC12C)C(C)C` (stereo not given) the T/C (dose: 100.0 mg/kg/injection, schedule: Q01DX028 (sc), vehicle: water) was 102 % of control and the T/C (dose: 400.0 mg/kg/injection, schedule: Q01DX028 (sc), vehicle: water) was 100 % of control.

`NC(Cc1c[nH]c2ccc(N(CCCl)CCCl)cc12)C(=O)O` (stereo not given) was tested, and the T/C (dose: 0.23 mg/kg/injection, schedule: Q01DX028 (sc), vehicle: acid diluted with saline) was 235 % of control, the T/C (dose: 0.39 mg/kg/injection, schedule: Q01DX028 (sc), vehicle: acid diluted with saline) was 276 % of control and the T/C (dose: 0.39 mg/kg/injection, schedule: Q01DX028 (sc), vehicle: other) was 285 % of control. For the same compound, the T/C (dose: 0.65 mg/kg/injection, schedule: Q01DX028 (sc), vehicle: acid diluted with saline) was 230 % of control, the T/C (dose: 0.65 mg/kg/injection, schedule: Q01DX028 (sc), vehicle: methylcellulose (MC)) was 164 % of control and the T/C (dose: 0.65 mg/kg/injection, schedule: Q01DX028 (sc), vehicle: other) was 380 % of control. The T/C (dose: 1.08 mg/kg/injection, schedule: Q01DX028 (sc), vehicle: methylcellulose (MC)) was 119 % of control, the T/C (dose: 1.08 mg/kg/injection, schedule: Q01DX028 (sc), vehicle: other) was 157 % of control and the T/C (dose: 1.8 mg/kg/injection, schedule: Q01DX028 (sc), vehicle: acid diluted with saline) was 107 % of control. For the same compound, the T/C (dose: 1.8 mg/kg/injection, schedule: Q01DX028 (sc), vehicle: other) was 114 % of control, the T/C (dose: 3.0 mg/kg/injection, schedule: Q01DX028 (sc), vehicle: acid diluted with saline) was 97 % of control and the T/C (dose: 3.0 mg/kg/injection, schedule: Q01DX028 (sc), vehicle: other) was 102 % of control.

For `O=NN(CCCl)C(=O)NCCCl`, the T/C (dose: 0.65 mg/kg/injection, schedule: Q01DX028 (sc), vehicle: saline) was 109 % of control, the T/C (dose: 1.08 mg/kg/injection, schedule: Q01DX028 (sc), vehicle: saline) was 107 % of control and the T/C (dose: 2.4 mg/kg/injection, schedule: Q01DX028 (sc), vehicle: saline) was 157 % of control. The T/C [1] was 157 % of control and 185 % of control and the T/C [2] was 195 % of control and 202 % of control.

`O=P1(N(CCCl)CCCl)NCCCO1` (stereo not given) was tested, and the T/C (dose: 2.0 mg/kg/injection, schedule: Q01DX028 (sc), vehicle: saline) was 86 % of control, the T/C (dose: 3.12 mg/kg/injection, schedule: Q01DX028 (sc), vehicle: saline) was 109 % of control and the T/C (dose: 4.0 mg/kg/injection, schedule: Q01DX028 (sc), vehicle: saline) was 100 % of control. For the same compound, the T/C (dose: 6.0 mg/kg/injection, schedule: Q01DX028 (sc), vehicle: saline) was 114 % of control, the T/C (dose: 8.0 mg/kg/injection, schedule: Q01DX028 (sc), vehicle: saline) was 161 % of control and the T/C (dose: 8.4 mg/kg/injection, schedule: Q01DX028 (sc), vehicle: saline) was 182 % of control and 184 % of control and 213 % of control. The T/C (dose: 10.0 mg/kg/injection, schedule: Q01DX Z (sc), vehicle: saline) was 194 % of control, the T/C (dose: 12.0 mg/kg/injection, schedule: Q01DX028 (sc), vehicle: saline) was 243 % of control and the T/C (dose: 12.5 mg/kg/injection, schedule: Q01DX011 (sc), vehicle: saline) was 190 % of control. The T/C (dose: 12.5 mg/kg/injection, schedule: Q01DX024 (sc), vehicle: saline) was 229 % of control, the T/C (dose: 14.0 mg/kg/injection, schedule: Q01DX Z (sc), vehicle: saline) was 190 % of control and the T/C (dose: 15.62 mg/kg/injection, schedule: Q01DX010 (sc), vehicle: saline) was 150 % of control. The T/C (dose: 16.0 mg/kg/injection, schedule: Q01DX028 (sc), vehicle: saline) was 167 % of control and 212 % of control, the T/C (dose: 20.0 mg/kg/injection, schedule: Q01DX Z (sc), vehicle: saline) was 155 % of control and the T/C (dose: 23.0 mg/kg/injection, schedule: Q01DX Z (sc), vehicle: saline) was 166 % of control. For the same compound, the T/C (dose: 24.0 mg/kg/injection, schedule: Q01DX028 (sc), vehicle: saline) was 114 % of control, the T/C (dose: 25.0 mg/kg/injection, schedule: Q01DX011 (sc), vehicle: saline) was 190 % of control and the T/C (dose: 25.0 mg/kg/injection, schedule: Q01DX015 (sc), vehicle: saline) was 91 % of control. The T/C (dose: 25.0 mg/kg/injection, schedule: Q01DX024 (sc), vehicle: saline) was 244 % of control, the T/C (dose: 31.25 mg/kg/injection, schedule: Q01DX010 (sc), vehicle: saline) was 186 % of control and the T/C (dose: 32.0 mg/kg/injection, schedule: Q01DX028 (sc), vehicle: saline) was 200 % of control and 208 % of control. The T/C (dose: 39.0 mg/kg/injection, schedule: Q01DX009 (sc), vehicle: saline) was 154 % of control, the T/C (dose: 39.0 mg/kg/injection, schedule: Q01DX Z (sc), vehicle: saline) was 150 % of control and the T/C [3] was 100 % of control. The T/C (dose: 50.0 mg/kg/injection, schedule: Q01DX009 (ip), vehicle: saline) was 259 % of control and 88 % of control, the T/C (dose: 50.0 mg/kg/injection, schedule: Q01DX011 (sc), vehicle: saline) was 190 % of control and the T/C (dose: 50.0 mg/kg/injection, schedule: Q01DX015 (sc), vehicle: saline) was 211 % of control. The T/C (dose: 50.0 mg/kg/injection, schedule: Q01DX024 (sc), vehicle: saline) was 223 % of control, the T/C (dose: 64.0 mg/kg/injection, schedule: Q01DX028 (sc), vehicle: saline) was 168 % of control and the T/C (dose: 65.0 mg/kg/injection, schedule: Q07DX004 (sc), vehicle: saline) was 197 % of control. The T/C (dose: 125.0 mg/kg/injection, schedule: Q01DX010 (sc), vehicle: saline) was 100 % of control, the T/C (dose: 128.0 mg/kg/injection, schedule: Q01DX028 (sc), vehicle: saline) was 97 % of control and the T/C (dose: 180.0 mg/kg/injection, schedule: Q01DX028 (sc), vehicle: saline) was 97 % of control.

In the case of `CC(=O)[C@H]1CC[C@H]2[C@@H]3C[C@H](C)C4=CC(=O)CC[C@]4(C)[C@H]3C(=O)C[C@]12C`, the T/C (dose: 108.0 mg/kg/injection, schedule: Q01DX028 (sc), vehicle: carboxymethylcellulose (CMC)) is reported as 102 % of control, the T/C (dose: 180.0 mg/kg/injection, schedule: Q01DX028 (sc), vehicle: carboxymethylcellulose (CMC)) is reported as 100 % of control and the T/C (dose: 300.0 mg/kg/injection, schedule: Q01DX028 (sc), vehicle: carboxymethylcellulose (CMC)) is reported as 97 % of control. For the same compound, the T/C (dose: 500.0 mg/kg/injection, schedule: Q01DX028 (sc), vehicle: carboxymethylcellulose (CMC)) was 97 % of control.

With `CS(=O)(=O)OCCN(CCOS(C)(=O)=O)c1ccc(C=O)cc1` the T/C [1] was 160 % of control, the T/C [2] was 166 % of control and 192 % of control and the T/C (dose: 8.3 mg/kg/injection, schedule: Q01DX028 (sc), vehicle: saline) was 226 % of control. The T/C (dose: 10.0 mg/kg/injection, schedule: Q01DX028 (sc), vehicle: saline) was 202 % of control, the T/C (dose: 14.0 mg/kg/injection, schedule: Q01DX028 (sc), vehicle: saline) was 250 % of control and the T/C (dose: 20.0 mg/kg/injection, schedule: Q01DX028 (sc), vehicle: saline) was 261 % of control. For the same compound, the T/C (dose: 40.0 mg/kg/injection, schedule: Q01DX028 (sc), vehicle: saline) was 122 % of control.

`CCN(CC)CCNc1ccc(C)c2sc3ccccc3c(=O)c12` (tested in a mixture with another compound) was tested, and the T/C [3] was 221 % of control, the T/C (dose: 69.0 mg/kg/injection, schedule: Q01DX028 (sc), vehicle: saline) was 231 % of control and the T/C (dose: 98.0 mg/kg/injection, schedule: Q01DX028 (sc), vehicle: saline) was 165 % of control. The T/C (dose: 140.0 mg/kg/injection, schedule: Q01DX028 (sc), vehicle: saline) was 173 % of control.

In the case of `Cn1cnc([N+](=O)[O-])c1Sc1nc(N)nc2nc[nH]c12`, the T/C (dose: 0.5 mg/kg/injection, schedule: Q01DX028 (sc), vehicle: carboxymethylcellulose (CMC)) is reported as 97 % of control, the T/C (dose: 1.0 mg/kg/injection, schedule: Q01DX028 (sc), vehicle: carboxymethylcellulose (CMC)) is reported as 117 % of control and the T/C (dose: 4.0 mg/kg/injection, schedule: Q01DX028 (sc), vehicle: carboxymethylcellulose (CMC)) is reported as 100 % of control.

In the case of `CN(Cc1cnc2nc(N)nc(N)c2n1)c1ccc(C(=O)N[C@@H](CCC(=O)O)C(=O)O)cc1`, the T/C (dose: 0.12 mg/kg/injection, schedule: Q01DX028 (sc), vehicle: other) is reported as 105 % of control and the T/C (dose: 1.0 mg/kg/injection, schedule: Q01DX028 (sc), vehicle: other) is reported as 98 % of control.

In the case of `CS(=O)(=O)OCCN(CCOS(C)(=O)=O)c1ccc(C=Nc2ccc3oc(=O)ccc3c2)cc1`, the T/C (dose: 3.5 mg/kg/injection, schedule: Q01DX Z (sc), vehicle: carboxymethylcellulose (CMC)) is reported as 166 % of control, the T/C (dose: 3.8 mg/kg/injection, schedule: Q01DX028 (sc), vehicle: steriod suspending solution) is reported as 165 % of control and the T/C (dose: 7.0 mg/kg/injection, schedule: Q01DX Z (sc), vehicle: carboxymethylcellulose (CMC)) is reported as 177 % of control. For the same compound, the T/C (dose: 7.5 mg/kg/injection, schedule: Q01DX028 (sc), vehicle: steriod suspending solution) was 188 % of control, the T/C (dose: 14.0 mg/kg/injection, schedule: Q01DX Z (sc), vehicle: carboxymethylcellulose (CMC)) was 216 % of control and the T/C (dose: 15.0 mg/kg/injection, schedule: Q01DX028 (sc), vehicle: steriod suspending solution) was 250 % of control. The T/C (dose: 28.0 mg/kg/injection, schedule: Q01DX Z (sc), vehicle: carboxymethylcellulose (CMC)) was 161 % of control and the T/C (dose: 30.0 mg/kg/injection, schedule: Q01DX028 (sc), vehicle: steriod suspending solution) was 230 % of control.
